Measured values taken from US11654178B2, “Cyclic prosaposin peptides and uses thereof” (CHILDREN'S MEDICAL CENTER CORPORATION, priority 2014, dated 2023).
Where a SMILES comes first, the peptide text is derived from it. Where no end group is shown, it is not given here. [ ]: non-standard residue; d: D form.

How the values were obtained:
DF14 cells = assay: PDX model of established ovarian cancer metastases, d-amino acid Psap peptide; format: in vivo; design: mice that died from adverse side effects / decrease of total body weight: dose or concentration left out as unconfirmed; settings: for body weight: 40 mg/kg QD, FIG. 16
Description: 75 percent of ovarian cancer patients already have disseminated disease at the time of first diagnosis (E. Lengyel, Ovarian cancer development and metastasis. Am J Pathol 177, 1053-1064 (2010)). For these patients inhibiting metastasis would have limited therapeutic benefit. Rather, these patients require a therapeutic agent that can regress or, at the very least, stabilize existing metastases. Whether the d-amino acid Psap peptide could have therapeutic efficacy in a model of established metastatic dissemination was investigated. 1×10^6 DF14 cells, expressing firefly luciferase, were injected into the peritoneal cavity of SCID mice to mimic the route of dissemination of human ovarian cancer. The growth of metastatic colonies in the mice in real time were monitored via relative luciferase intensity and when the average intensity of the luciferase signal was 0.5-1×10^8 RLU, treatment with vehicle (saline), the d-amino acid peptide (40 mg/kg QD), or cisplatin (4 mg/kg QOD) was started. […] However, during those 20 days half of the cisplatin treated mice died from adverse side effects of the drug as defined by total body weight, which decreased by 40% (FIG. 13C). Moreover, after 20 days the tumors in the group of cisplatin treated mice that survived began to grow, despite continued treatment with cisplatin, and all the remaining mice died within 10 days (FIG. 13A).
The livers and spleens of the Psap peptide treated mice were examined histologically (H&E) to determine whether there were any micrometastases.
Metastases in the peritoneal cavity recruited Cd11b^+/Gr1^+ bone marrow derived cells, analogous to lung metastases was investigated (3). […] The fluid was FACS sorted from these mice to assess the population of Cd11^+/Gr1^+ bone marrow derived cells. […] Based on these findings it was concluded that the Psap peptide was able to dramatically regress established metastases to the point where no detectable lesions could be found.

[1] = system: primary human ovarian cancer cell lines; assay: Cell number (Wst-1) and apoptosis (Annexin V/PI FACS) of patient derived ovarian cancer cell lines; format: cell-based
Description: FIGS. 12A-12E show stimulation of Tsp-1 and its effects on ovarian cancer cell growth and survival. FIG. 12A is a western blot of Tsp-1 and β-actin in WI-38 lung fibroblasts that were untreated (−) or treated with native DWLP (SEQ ID NO: 6), L-amino acid, prosaposin peptide (WT), dWIP (SEQ ID NO: 5, lower case d and 1 indicate D-amino acids) prosaposin peptide (d1.3) or DwLp (SEQ ID NO: 7, lower case w and p indicate D-amino acids) prosaposin peptide (d2,4): […] is a western blot of Tsp-1 and β-actin in mouse lung tissue harvested from mice treated with metastatic prostate cancer cell conditioned media alone (−) or in combination with DWLP (SEQ ID NO: 6) prosaposin peptide (WT) or dWIP (SEQ ID NO: 5, lower case d and l indicate D-amino acids) prosaposin peptide (d1,3 peptide) at doses of 10 and 30 mg/kg/day for 3 days; FIG. 12C is a western blot of CD36 and β-actin in 8 patient derived ovarian cancer cell lines; FIG. 12D is a plot of cell number as measured by Wst-1 assay of a patient derived ovarian cancer cell line treated with 1 μM recombinant human Tsp-1 (rhTsp-1) for 24, 48 and 72 hours; and FIG. 12E is a FACS analysis of Annexin V and PI of a patient derived ovarian cancer cell line treated with 1 μM recombinant human Tsp-1 (rhTsp-1) for 48 hours.
In order to test the efficacy of the d-amino acid Psap peptide, a suitable tumor model that would represent a potential clinical application for the peptide, was determined. Given that Psap, and the peptide derived from it, stimulates Tsp-1 in bone marrow derived cells that are recruited to sites of metastasis, a specific type of cancer that expressed the receptor for Tsp-1 that mediates its pro-apoptotic activity, CD36 was sought to be identified (5). It has been reported that serous ovarian epithelial cells and human ovarian cancer cells express CD36 (11-13). […] Three of these cell lines were treated with recombinant human Tsp-1 for up to 72 hours and determined its effect on cell number and apoptosis.

thrombospondin-1 (Tsp-1) = assay: Tsp-1 activation in cultured cells by Western blot; format: cell-based
Method: Cells were cultured and contacted with 4 micrograms/mL or 10 micrograms/mL of each peptide and the level of thrombospondin-1 (Tsp-1) activation was measured by Western blot. Tsp-1 has been previously shown to be activated by Saposin A protein.

[2] = Stability in human plasma at 37° C., read out as Tsp-1 stimulation in WI-38 fibroblasts (ELISA); format: in vitro ADME; settings: 24 hours
Method: The cyclic peptide DWLPK (SEQ ID NO: 1) was also tested for stability in human plasma compared to the linear peptide dWIP (SEQ ID NO: 5). Each peptide was incubated in human plasma at 37 degrees Celsius, for 2, 4, 8, or 24 hours.
Cyclization also has the effect of increasing the stability of peptides by forcing them into a conformation that is not recognized by most naturally occurring proteases (9, 10, 14-18). The stability of the cyclic peptide to the linear d-amino acid peptide in human plasma was compared.

Tsp-1 = Tsp-1 expression in lungs of mice pretreated with PC3M-LN4 conditioned media (western blot); format: in vivo, C57BL6/J mice; settings: dose of 10 mg/kg, 3 days, LN4 CM
Method: The activity of the 1,3-d-amino acid Psap peptide and the native Psap peptide were tested in vivo. The peptides were systematically administered to C57BL6/J mice that were pretreated with conditioned media (CM) from PC3M-LN4 (LN4) cells, which previously mimicked the systemic properties of metastatic tumors by repressing the expression of Tsp-1 in the lungs of mice (3, 4). After 3 days of treatment with LN4 CM alone or in combination with two different doses (10 mg/kg/day and 30 mg/kg/day) of d- and 1-amino acid peptides (independently) protein pools were prepared from the harvested lungs of each treatment group. The level of Tsp-1 expression in the lungs of these mice were assessed by western blot analysis. It was observed that the 1,3-d-amino acid peptide stimulated Tsp-1 3-fold greater than the native peptide (FIG. 12B). […] Based on the observation that the in vitro activity of the two peptides was virtually identical, it was concluded that the difference in activity in vivo was due to a difference in stability.

## N.N.[Cl][Pt][Cl] [cisplatin]
DF14 cells; after day 20 of treatment
  time until all remaining mice died: ≤ 10 days
DF14 cells; during first 20 days
  decrease of total body weight: 40%
  mice that died from adverse side effects: half
DF14 cells; first 20 days of treatment, peptide 40 mg/kg QD, cisplatin 4 mg/kg QOD
  tumor volume as determined by luciferase intensity: able to regress tumor volume
DF14 cells; surviving mice, cisplatin 4 mg/kg QOD
  tumor growth after 20 days despite continued treatment: began to grow
[1]; FIG. 12E, compared with Tsp-1 treatment
  necrosis (low Anexin V and high PI staining): much greater percentage of ovarian cancer cells underwent necrosis

## CC(C)C[C@@H]1NC(=O)[C@H](Cc2c[nH]c3ccccc23)NC(=O)[C@@H](CC(=O)O)NC(=O)[C@H](CCCCN)NC(=O)[C@@H]2CCCN2C1=O [cyclic dWLPK] (cyclo(K[dD]WLP))
thrombospondin-1 (Tsp-1); cyclic peptides, 4 micrograms/mL or 10 micrograms/mL, Western blot, FIG. 2
  effectiveness at increasing the level of Tsp-1: least effective

## CC(C)C[C@@H](NC(=O)[C@H](Cc1c[nH]c2ccccc12)NC(=O)[C@H](N)CC(=O)O)C(=O)N1CCC[C@H]1C(=O)O [linear dWIP, reference compound] (H-[dD]W[dL]P-OH; N-terminus and C-terminus assumed)
DF14 cells; listed as Psap peptide
  body weight: no loss of body weight
DF14 cells; listed as psap peptide
  body weight: no effect on body weight
[2]; 37 degrees Celsius, FIG. 3
  ability to activate Tsp-1 after incubation in human plasma: significantly less activity
[2]; 37° C., ELISA
  Tsp-1 stimulation after incubation in human plasma: no longer able to stimulate Tsp-1

## RhTsp-1: recombinant human Tsp-1 (thrombospondin-1)
[1]; 1 μM, 48 hours, FIG. 12E
  apoptotic cells (Anexin V positivity) by FACS: 30-60%
[1]; three cell lines, up to 72 hours, 1 μM, FIG. 12D
  decrease in total cell number, of the original number of cells plated: up to 50%

## linear DWGPK: linear version of peptide DWGPK (SEQ ID NO: 2) (not fully specified) [reference compound]
thrombospondin-1 (Tsp-1); similar study with linear versions
  effectiveness at increasing Tsp-1, linear versions of the peptides: more effective than linear DWLPK

## native peptide: native DWLP (SEQ ID NO: 6), L-amino acid, prosaposin peptide (WT)
Tsp-1
  Tsp-1 stimulation in lungs: did not significantly stimulate Tsp-1
